Results: patent US11541107B2, “Peptides and T cells for use in immunotherapeutic treatment of various cancers” (Immatics Biotechnologies GmbH, priority 2015, dated 2023)

biological target: HLA-A*02 (Homo sapiens, UniProt P04439, D140Y/D185E/D98H/E176V/E277Q/G131W/G231S/I119V/I121R/I166T/I218V/L300P/N151K/N90K/P208A/P217A/Q86G/Q94H/R138H/R169H); test: MHC binding assay, UV-ligand exchange with beta2m ELISA, HLA-A*02; details: binding to HLA-A*02 ranged by peptide exchange yield (UV-ligand exchange, beta2m ELISA)
Outline: (§1)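 Peptide–MHC complexes made by UV-ligand exchange of a UV-cleavable peptide. Exchange yield measured by ELISA: monomers diluted 100-fold on streptavidin-coated plates, 1 h at 37°C, detected with HRP anti-β2m (2 ug/ml) and TMB, absorbance at 450 nm.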

| Peptide exchange | Substance |
| --- | --- |
| +++ (50%-75% = +++) | 7 (AAAAKVPEV; listed as Homo sapiens) [compound 7] |
| +++ (50%-75% = +++) | 43 (LLWAGPVTA; listed as Homo sapiens) [compound 43] |

The next lines start with the substance.

| Substance | Peptide exchange |
| --- | --- |
| 2 (ALYGKLLKL; listed as Homo sapiens) [compound 2] | +++ (50%-75% = +++) |
| 9 (FLGDYVENL; listed as Homo sapiens) [compound 9] | ++ (20%-49% = ++) |
| 17 (ILHEHHIFL; listed as Homo sapiens) [compound 17] | +++ (50%-75% = +++) |
| 322 (ALVSGGVAQA; listed as Homo sapiens) [compound 322] | +++ (50%-75% = +++) |

system: HLA-A*24; test: MHC binding assay, UV-ligand exchange with beta2m ELISA, HLA-A*24; design: species or system human; details: binding to HLA-A*24 ranged by peptide exchange yield (UV-ligand exchange, beta2m ELISA)
Outline: as §1

| Peptide exchange | Substance |
| --- | --- |
| ++++ (>=75% = ++++) | 172 (VFIFKGNEF; listed as Homo sapiens) [compound 172] |
| +++ (50%-75% = +++) | 175 (LYSPVPFTL; listed as Homo sapiens) [compound 175] |
| +++ (50%-75% = +++) | 190 (LYSELTETL; listed as Homo sapiens) [compound 190] |
| +++ (50%-75% = +++) | 344 (EYNSDLHQF; listed as Homo sapiens) [compound 344] |
| ++++ (>=75% = ++++) | 356 (NYMPGQLTI; listed as Homo sapiens) [compound 356] |
| +++ (50%-75% = +++) | 358 (YYSEVPVKL; listed as Homo sapiens) [compound 358] |
| ++ (20%-49% = ++) | 363 (SYAELGTTI; listed as Homo sapiens) [compound 363] |

Further lines, the substance ahead of its results:

| Substance | Peptide exchange |
| --- | --- |
| 174 (VYEKNGYIYF; listed as Homo sapiens) [compound 174] | +++ (50%-75% = +++) |
| 177 (VYFKAGLDVF; listed as Homo sapiens) [compound 177] | +++ (50%-75% = +++) |
| 180 (KYLQVVGMF; listed as Homo sapiens) [compound 180] | +++ (50%-75% = +++) |
| 181 (VYPPYLNYL; listed as Homo sapiens) [compound 181] | +++ (50%-75% = +++) |
| 186 (VFTTSSNIF; listed as Homo sapiens) [compound 186] | ++++ (>=75% = ++++) |
| 353 (TYGKIDLGF; listed as Homo sapiens) [compound 353] | +++ (50%-75% = +++) |
| 354 (VYNEQIRDLL; listed as Homo sapiens) [compound 354] | +++ (50%-75% = +++) |
| 359 (NYGVLHVTF; listed as Homo sapiens) [compound 359] | ++++ (>=75% = ++++) |
| 365 (VFIDHPVHL; listed as Homo sapiens) [compound 365] | ++++ (>=75% = ++++) |
| 380 (VYTGIDHHW; listed as Homo sapiens) [compound 380] | ++++ (>=75% = ++++) |

system: CD8+ T cells; test: In vitro T-cell priming assay (aAPCs loaded with peptide/MHC and anti-CD28, pMHC multimer readout; HLA-A*02 and HLA-A*24); type: cell-based, human; details: in vitro immunogenicity of HLA class I peptides; peptide-specific T cells by pMHC multimer staining
From the text: In order to obtain information regarding the immunogenicity of the TUMAPs of the present invention, the inventors performed investigations using an in vitro T-cell priming assay based on repeated stimulations of CD8+ T cells with artificial antigen presenting cells (aAPCs) loaded with peptide/MHC complexes and anti-CD28 antibody.
In order to perform in vitro stimulations by artificial antigen presenting cells loaded with peptide-MHC complex (pMHC) and anti-CD28 antibody, the inventors first isolated CD8+ T cells from fresh HLA-A*02 leukapheresis products via positive selection using CD8 microbeads (Miltenyi Biotec, Bergisch-Gladbach, Germany) of healthy donors obtained from the University clinics Mannheim, Germany, after informed consent.
PBMCs and isolated CD8+ lymphocytes were incubated in T-cell medium (TCM) until use consisting of RPMI-Glutamax (Invitrogen, Karlsruhe, Germany) supplemented with 10% heat inactivated human AB serum (PAN-Biotech, Aidenbach, Germany), 100 U/ml Penicillin/100 μg/ml Streptomycin (Cambrex, Cologne, Germany), 1 mM sodium pyruvate (CC Pro, Oberdorla, Germany), 20 μg/ml Gentamycin (Cambrex). 2.5 ng/ml IL-7 (PromoCell, Heidelberg, Germany) and 10 U/ml IL-2 (Novartis Pharma, Nürnberg, Germany) were also added to the TCM at this step.
Generation of pMHC/anti-CD28 coated beads, T-cell stimulations and readout was performed in a highly defined in vitro system using four different pMHC molecules per stimulation condition and 8 different pMHC molecules per readout condition.
The purified co-stimulatory mouse IgG2a anti human CD28 Ab 9.3 (Jung et al., 1987) was chemically biotinylated using Sulfo-N-hydroxysuccinimidobiotin as recommended by the manufacturer (Perbio, Bonn, Germany). Beads used were 5.6 μm diameter streptavidin coated polystyrene particles (Bangs Laboratories, Illinois, USA).
pMHC used for positive and negative control stimulations were A*0201/MLA-001 (peptide […] (SEQ ID NO. 418) from modified Melan-A/MART-1) and A*0201/DDX5-001 ([…] from DDX5, SEQ ID NO. 419), respectively.
800.000 beads/200 μl were coated in 96-well plates in the presence of 4×12.5 ng different biotin-pMHC, washed and 600 ng biotin anti-CD28 were added subsequently in a volume of 200 μl. Stimulations were initiated in 96-well plates by co-incubating 1×10^6 CD8+ T cells with 2×10^5 washed coated beads in 200 μl TCM supplemented with 5 ng/ml IL-12 (PromoCell) for 3 days at 37° C. Half of the medium was then exchanged by fresh TCM supplemented with 80 U/ml IL-2 and incubating was continued for 4 days at 37° C. This stimulation cycle was performed for a total of three times. For the pMHC multimer readout using 8 different pMHC molecules per condition, a two-dimensional combinatorial coding approach was used as previously described (Andersen et al., 2012) with minor modifications encompassing coupling to 5 different fluorochromes. Finally, multimeric analyses were performed by staining the cells with Live/dead near IR dye (Invitrogen, Karlsruhe, Germany), CD8-FITC antibody clone SK1 (BD, Heidelberg, Germany) and fluorescent pMHC multimers. For analysis, a BD LSRII SORP cytometer equipped with appropriate lasers and filters was used. Peptide specific cells were calculated as percentage of total CD8+ cells. Evaluation of multimeric analysis was done using the FlowJo software (Tree Star, Oregon, USA). In vitro priming of specific multimer+CD8+ lymphocytes was detected by comparing to negative control stimulations.
Exemplary flow cytometry results after TUMAP-specific multimer staining for 2 peptides of the invention are shown in FIGS. 3A-3B together with corresponding negative controls. Results for 5 peptides from the invention are summarized in Table12A. Exemplary flow cytometry results after TUMAP-specific multimer staining for 7 peptides of the invention are shown in FIGS. 4A-4C and FIGS. 5A-5D together with corresponding negative controls.

| Substance | Wells positive [%] |
| --- | --- |
| 2 (ALYGKLLKL; listed as Homo sapiens) [compound 2] | ++++ (>=70% = ++++) |
| 7 (AAAAKVPEV; listed as Homo sapiens) [compound 7] | + (<20% = +) |
| 9 (FLGDYVENL; listed as Homo sapiens) [compound 9] | + (<20% = +) |
| 17 (ILHEHHIFL; listed as Homo sapiens) [compound 17] | + (<20% = +) |
| 43 (LLWAGPVTA; listed as Homo sapiens) [compound 43] | ++++ (>=70% = ++++) |
| 172 (VFIFKGNEF; listed as Homo sapiens) [compound 172] | + (<20% = +) |
| 174 (VYEKNGYIYF; listed as Homo sapiens) [compound 174] | ++++ (>=70% = ++++) |
| 175 (LYSPVPFTL; listed as Homo sapiens) [compound 175] | + (<20% = +) |
| 177 (VYFKAGLDVF; listed as Homo sapiens) [compound 177] | + (<20% = +) |
| 180 (KYLQVVGMF; listed as Homo sapiens) [compound 180] | + (<20% = +) |
| 181 (VYPPYLNYL; listed as Homo sapiens) [compound 181] | ++++ (>=70% = ++++) |
| 186 (VFTTSSNIF; listed as Homo sapiens) [compound 186] | + (<20% = +) |
| 190 (LYSELTETL; listed as Homo sapiens) [compound 190] | ++++ (>=70% = ++++) |
| 322 (ALVSGGVAQA; listed as Homo sapiens) [compound 322] | + (<20% = +) |
| 344 (EYNSDLHQF; listed as Homo sapiens) [compound 344] | + (<20% = +) |
| 353 (TYGKIDLGF; listed as Homo sapiens) [compound 353] | + (<20% = +) |
| 354 (VYNEQIRDLL; listed as Homo sapiens) [compound 354] | + (<20% = +) |
| 356 (NYMPGQLTI; listed as Homo sapiens) [compound 356] | + (<20% = +) |
| 358 (YYSEVPVKL; listed as Homo sapiens) [compound 358] | ++++ (>=70% = ++++) |
| 359 (NYGVLHVTF; listed as Homo sapiens) [compound 359] | + (<20% = +) |
| 363 (SYAELGTTI; listed as Homo sapiens) [compound 363] | + (<20% = +) |
| 365 (VFIDHPVHL; listed as Homo sapiens) [compound 365] | + (<20% = +) |
| 380 (VYTGIDHHW; listed as Homo sapiens) [compound 380] | + (<20% = +) |
